We go through three molecules from patent publication US9474814B2, “Differential evaporation potentiated disinfectant system” (XY, LLC, priority 2007, dated 2016).

The conditions of data set [1]: n-octanol/water; cited from earlier work.
The conditions of data set [2]: flash point; cited from earlier work.
For data set [3] the following is noted: neat substance; BuAc (reference) = 1.00; cited from earlier work.
Data set [4] in a line: Evaporation of fluid volume over time (FIG. 2). The class given is physicochemical. The text has this:
(§1) Line C represents the change in fluid volume of a 20% (v/v) solution of diacetone alcohol in water caused by evaporation (a particular embodiment of the inventive differential evaporation antimicrobial composition), while line D represents the change in fluid phase concentration of the same 20% (v/v) diacetone alcohol in water occurring during the same fluid volume change. In this case, complete evaporation can occur in approximately 75 time units. Comparatively, the 20% (v/v) diacetone alcohol in water can be engaged with a population of microorganisms for a greater duration of time than the conventional antimicrobial composition without reapplication of an additional amount because evaporation occurs at a slower rate as shown by Table 3.
By comparison, Line C represents the change in fluid volume of a 20% (v/v) solution of diacetone alcohol in water, while line D represents the change in concentration of diacetone alcohol in water. As to this non-limiting example, if 10% diacetone alcohol (v/v) is the minimum concentration to provide an antimicrobial composition, then the entire 75 time units provide an antimicrobial composition because the concentration of diacetone alcohol increases over the 75 time units in accordance with embodiments of differential evaporation potentiated antimicrobial compositions.

In data set [5] the test system is Staphylococcus aureus (ATCC 6538), Pseudomonas aeruginosa (ATCC 9027), Salmonella Choleraesuis (ATCC 13312). The data set can be described thus: Coverslip assay: composition applied to dried bacteria on glass coverslips, evaporated to dryness, nutrient agar contact. It is filed as cell-based. Here is the method: These bacteria cultures can be diluted to obtain concentrations of about 10^7 through about 10^3 CFU/ml and 10 μl of each dilution can be spread onto a glass coverslip with a sterile loop and allowed to dry. Afterwards, the coverslips containing 10^5 to 10^2 CFU can be placed inside of petri dish. Different concentrations of the amount of substance can be applied to the cover slips with a nebulizer as described by Germicidal Spray Products as Disinfectants, Method 961.02, AOAC International (2004). As a non-limiting example, isopropyl alcohol (IPA) and diacetone alcohol (DAA) can be assessed as above described by obtaining aqueous mixtures of IPA at concentrations of 55% w/w, 20% w/w, and 5% w/w. […] A nutrient agar lightly pressed against the coverslips allows contact of microorganisms on the coverslips with the nutrient agar. The nutrient agar can be incubated for 48 hours at 37° C. in contact with the coverslips and then observed for microbial reproduction in the region where the coverslips contact the nutrient agar. Untreated coverslips can be used as a positive control. Particular examples of utilizing the method are set forth below.

The conditions of data set [6]: cited from earlier work.
In data set [7] the test system is Staphylococcus aureus (ATCC 6538). Kind of data set: Potentiation Assay (non-evaporative vs evaporative procedure). The settings on record: for Evaporated Log 10 Reduction: evaporated in centrifuge 60 minutes; for Non-evaporated Log 10 Reduction: set 60 minutes; for evaporative potentiation of antimicrobial efficacy: evaporative vs non-evaporative procedure, concentrations tested in water. The class given is cell-based. How it is done: Now referring primarily to Table 5 and FIG. […] The non-evaporative and evaporative procedures included 50 μL of an overnight Staphylococcus aureus (ATCC 6538, ˜10^9 CFU/mL) culture added to each 2 mL sterile plastic vial with a conical bottom and dried without capping in a centrifuge for 30 minutes. One hundred microliters of the solution being tested was added to each vial (as triplicate vials) either let set for 60 minutes (non-evaporative) or evaporated in a centrifuge for 60 minutes (evaporative), with time to evaporate being determined by each DAA mixtures own evaporative characteristic. To the non-evaporated vials, 400 μL Mueller Hinton Broth (MHB) was added to the vial and 100 μL was plated onto Nutrient agar (NA). To the evaporated vials, 500 μL of MHB was added and 100 μL was plated onto NA. Plates were incubated overnight at ˜37° C. and counted (the “Potentiation Assay”).

The nature of data set [8]: Relative evaporation rates. It is filed as physicochemical. The settings on record: BuAc (reference) = 1.00.
From the text: as §1

Setting [9] is: 6% v/v active component, 94% water.
The mark [10] stands for this setting: 10% v/v active component, 90% water.
The mark [11] stands for this setting: azeotrope in water, Table 2, listed as Diacetone Alcohol.
Where [12] appears, read: 3% v/v active component, 97% water.
The mark [13] stands for this setting: 15% v/v active component, 85% water.
Where [14] appears, read: 70% v/v active component, 30% water.
Setting [15] is: 20% v/v active component, 80% water.

The Log P is the decadic logarithm of the partition coefficient of the neutral form, usually between octanol and water.

Structures are written as SMILES. Like-named read-outs stand apart in the source and are kept apart here.

`CC(C)=O` [Acetone, reference compound]: the log partition coefficient (Log P) in data set [1] is reported as −0.23. Moreover, the FP in data set [2] was −18 °C. Further, the “Relative Evaporation Rates” value in data set [3] is 11.60.

On to `CC(=O)CC(C)(C)O` [DAA, 4-hydroxy-4-methyl-2-pentanone], for which, in data set [4] (20% (v/v) in water), the complete evaporation entry is reported as “approximately 75 time units”. In addition, in data set [1], the “Log P” value is recorded as “about −0.14”. Besides, the Evaporated from coverslip entry in data set [5] (setting [9]) is “X (denotes a plate where the number of colonies represented less than 50% of the number of colonies counted in the corresponding positive control plate, representing reduction of the number of microorganisms (<2 Log10 reduction).)”; in data set [5] (setting [10]), “XX (denotes a plate where the number of colonies represented less than 10% of the number of colonies counted in the corresponding positive control plate, representing a significant reduction of the number of microorganisms (>3 Log10 reduction).)”; in data set [5] (60% v/v active component, 40% water), “XXX (denotes a plate in which zero colonies were present, representing complete reduction of the number of microorganisms (>5 Log10 reduction).)”. Also, the “reduction of populations of microorganisms, comparison” value in data set [5] (concentrations at which water evaporated at a greater rate than DAA from the mixture) is “greater reduction of populations of microorganisms than 70% IPA (v/v)”. Further, the azeotrope % mol/mol in data set [6] (azeotrope in water, Table 2) is listed as 2.2% mol/mol. The azeotrope % vol/vol in data set [6] (setting [11]) is 13.43% vol/vol. Further, the azeotrope % w/w is listed as 12.70% w/w in data set [6] (setting [11]) and “about 12.70 % w/w” in data set [6] (azeotrope in water, Table 2, listed as diacetone alcohol). In addition, the azeotrope point result in data set [6] (diacetone alcohol and water) is “about 12.7 grams per 100 grams of the com”. The “Evaporated Log 10 Reduction” value is listed as “X (denotes a plate where the number of colonies represented less than 50% of the number of colonies counted in the corresponding positive control plate, representing reduction of the number of microorganisms (<2 Log10 reduction).)” in data set [7] (setting [12]); “X (denotes a plate where the number of colonies represented less than 50% of the number of colonies counted in the corresponding positive control plate, representing reduction of the number of microorganisms (<2 Log10 reduction).)” in data set [7] (setting [9]); “XX (denotes a plate where the number of colonies represented less than 10% of the number of colonies counted in the corresponding positive control plate, representing a significant reduction of the number of microorganisms (>3 Log10 reduction).)” in data set [7] (setting [10]); “XXX (denotes a plate in which zero colonies were present, representing complete reduction of the number of microorganisms (>5 Log10 reduction).)” in data set [7] (setting [13]). Further, the “Non-evaporated Log 10 Reduction” value in data set [7] (setting [12]) is listed as “---0--- (denotes a plate where the numbers of colonies represented more than 50% of the number of colonies counted in the corresponding positive control plate, representing no significant reduction in the population of viable microorganisms (0 to 1 Log10 reduction).)”; in data set [7] (setting [9]), “---0--- (denotes a plate where the numbers of colonies represented more than 50% of the number of colonies counted in the corresponding positive control plate, representing no significant reduction in the population of viable microorganisms (0 to 1 Log10 reduction).)”; in data set [7] (setting [10]) it was “---0--- (denotes a plate where the numbers of colonies represented more than 50% of the number of colonies counted in the corresponding positive control plate, representing no significant reduction in the population of viable microorganisms (0 to 1 Log10 reduction).)”; in data set [7] (setting [13]), “XXx (denotes a plate where the number of colonies represented less than 1% of the number of colonies counted in the corresponding positive control plate, representing nearly complete reduction of the number of microorganisms (>4 Log10 reduction).)”. In addition, the “evaporative potentiation of antimicrobial efficacy” value in data set [7] is on record as “can be potentiated by evaporation”. Besides, the “Relative Evaporation Rates” value in data set [3] is listed as 0.14. Also, the “Relative Evaporation Rates (estimated)” value was 0.31 in data set [8] (20% (v/v)) and 0.27 in data set [8] (40% (v/v)).

With `CC(C)O` [Isopropanol, 2-propanol, reference compound], the complete evaporation entry in data set [4] (70% (v/v) in water) is on record as “about 15 time units”. Also, the Evaporated from coverslip result in data set [5] (setting [9]) is “---o---”; in data set [5] (25% v/v active component, 75% water) it was “---o---”; in data set [5] (setting [14]), “X (denotes a plate where the number of colonies represented less than 50% of the number of colonies counted in the corresponding positive control plate, representing reduction of the number of microorganisms (<2 Log10 reduction).)”. Besides, the “reduction of the population of viable microorganisms” value in data set [5] (concentrations of 6% and 25% in water) is on record as “did not reduce the population of viable microorganisms”. Besides, in data set [6] (Table 1), the “Azeotrope with Water % v/v” value is recorded as 83% v/v. Besides, the “Azeotrope with Water % w/w” value in data set [6] (Table 1) was 87% w/w. Besides, the “Evaporated Log 10 Reduction” value is on record as “---0--- (denotes a plate where the numbers of colonies represented more than 50% of the number of colonies counted in the corresponding positive control plate, representing no significant reduction in the population of viable microorganisms (0 to 1 Log10 reduction).)” in data set [7] (setting [10]); “---0--- (denotes a plate where the numbers of colonies represented more than 50% of the number of colonies counted in the corresponding positive control plate, representing no significant reduction in the population of viable microorganisms (0 to 1 Log10 reduction).)” in data set [7] (setting [15]); “XXX (denotes a plate in which zero colonies were present, representing complete reduction of the number of microorganisms (>5 Log10 reduction).)” in data set [7] (setting [14]). For the same molecule, the “Non-evaporated Log 10 Reduction” value is “---0--- (denotes a plate where the numbers of colonies represented more than 50% of the number of colonies counted in the corresponding positive control plate, representing no significant reduction in the population of viable microorganisms (0 to 1 Log10 reduction).)” in data set [7] (setting [10]); “XXX (denotes a plate in which zero colonies were present, representing complete reduction of the number of microorganisms (>5 Log10 reduction).)” in data set [7] (setting [15]); “XXX (denotes a plate in which zero colonies were present, representing complete reduction of the number of microorganisms (>5 Log10 reduction).)” in data set [7] (setting [14]). Also, in data set [7], the “evaporative potentiation of antimicrobial efficacy” value was “cannot be potentiated”. Moreover, the FP in data set [2] is 21 °C.
